Test results taken from patent US8003331B2, “Method for identifying target protein of drug and method for screening therapeutic agent for diabetes using the target protein” (Astellas Pharma Inc., priority 2005, dated 2011).
Entries after “also recorded” stand apart in the source; their conditions may differ.

What was measured:
[1] = tested on: TNF-α; test: TNF-α gene expression in HeLa S3 cell (real time PCR, corrected by β-actin); type: cell-based, human; details: okadaic acid 50 nM
Description: The pcDNA-TARDBP or an empty vector (pcDNA3.1) (Invitrogen) was transferred into HeLa S3 cell. Illustratively, the HeLa S3 cell (ATCC) was firstly cultured in a 12 well culture plate until it reached a state of 70% confluent, by adding 1 ml of a minimum essential medium DMEM (Gibco) containing 10% fetal bovine serum (Sigma) to each well of the culture plate. The medium was substituted by 0.5 ml per well of a serum-free medium OPTI MEM I (Invitrogen), and 0.8 μg/well of the pcDNA-TARDBP or pcDNA3.1 was transiently transferred using Lipofect amine 2000 (Invitrogen). After 12 hours of the culturing, this was substituted by 1 ml/well of DMEM containing 10% of fetal bovine serum and further cultured for 12 hours. This was further cultured for 16 hours under a condition of adding or not adding okadaic acid (Wako Pure Chemical Industries) to a final concentration of 50 nM. In this case, […] was added a part of the cells simultaneously with the okadaic acid treatment. The medium was discarded, the cells were washed twice with ice-cooled PBS, and then these cells were frozen and stored at −80° C.
Total RNA was prepared from each cell frozen in the aforementioned Example 9(2), using a reagent for RNA extraction use (Isogen; Nippon Gene) and in accordance with the instructions attached thereto. The thus prepared each total RNA was then treated with a deoxyribonuclease (Nippon Gene), subjected to phenol/chloroform treatment and ethanol precipitation and dissolved in sterile water. Using 1 μg of this total RNA, its reverse transcription into a single-stranded cDNA was carried out in a system of 20 μl using a kit for reverse transcription reaction use (Advantage™ RT-for-PCR Kit; Clontech).
Six oligonucleotides (SEQ ID NO:97 to SEQ ID NO:102) were designed and synthesized as primers of PCR for the measurement of gene expression quantity. A combination of SEQ ID NO:97 and SEQ ID NO:98 was used for human β-actin gene, and a combination of SEQ ID NO:99 and SEQ ID NO:100 for human TNF-α gene, and a combination of SEQ ID NO:101 and SEQ ID NO:102 for human TARDBP gene, respectively. […]
The expression quantities of human TNF-α gene and human TARDBP gene in each sample were corrected by the expression quantity of β-actin gene based on the following equation. [Corrected expression quantity of TNF-α or TARDBP]=[expression quantity of TNF-α or TARDBP gene (raw data)/[expression quantity of β-actin gene (raw data)]
In comparing the expression quantities of TNF-α and TARDBP genes, relative amounts were calculated by regarding the expression quantity in a cell, into which an empty vector (pcDNA3.1) was transferred and which was treated only with the solvent (DMSO), as 100, with the results sown in FIG. 9 and FIG. 10. […]

[2] = tested on: db/db mouse; test: blood sugar level and blood lactic acid level in db/db mouse after intraperitoneal administration; type: in vivo; details: db/db mice, fasting, metformin 300 mg/kg; for blood lactic acid level: compound 100 mg/kg, 0, 90, 180 minutes; for hypoglycemic action (blood sugar level): compound 100 mg/kg, 90 and 180 minutes, vs vehicle group
From the text: As described in the aforementioned Example 6, the compound A and compound B found by the screening method of the present invention have the ability to activate AMPK in cells. Next, whether or not these compounds have the in vivo hypoglycemic action similar to the case of biguanide was examined. At the same time, action of the aforementioned 2 compounds on the increase of blood lactic acid value as an adverse side effect of biguanide was also examined. A total of 15 animals of 11 weeks of age of db/db mouse (BKS.Cg-+Leprdb/+Leprdb/Jcl; CLEA Japan) as a diabetes model mouse were divided into 3 groups, each consisting of 5 animals. […] They were subjected to fasting at the same time with the administration, and blood samples were collected from the tail of each animal 0 minute, 90 minutes and 180 minutes thereafter to measure blood sugar level and blood lactic acid level. The blood sugar level was measured using a simplified blood sugar analyzer (Acu Check Active II; Roche), and the blood lactic acid level was measured using a simplified lactic acid analyzer (Lactate Pro; Arkray Marketing), respectively. In the same manner, 12 animals of the db/db mouse of 18 weeks of age were divided in 3 groups, 4 animals for each. […] In the same manner as the above, they were subjected to fasting at the same time with the administration, and the blood sugar level and blood lactic acid level were respectively measured 0 minute, 90 minutes and 180 minutes thereafter in the same as described in the above.

[3] = tested on: AMPK; test: AMPK activation ability detection in HeLa S3 cell (anti-phospho AMPK western blotting); type: cell-based, human; details: phenformin 1 mM, 1 hr; for activation of AMPK in cell over-expressing human ATP5B: pcDNA-ATP5B-transferred HeLa S3 cell, metformin 10 mM; for phosphorylation level (activation) of AMPK: HeLa S3 cell without ATP5B over-expression (empty vector- or pcDNA-LKB1-transferred), concentration of compounds A and B not given
Description: This expression plasmid pcDNA-LKB1 and the pcDNA-ATP5B prepared in the aforementioned Example 5(1) or an empty vector (pcDNA3.1) (Invitrogen) were transferred into HeLa S3 cell. The HeLa S3 cell (ATCC) was cultured in a 6 well culture plate (35 mm in well diameter) until it reached a state of 70% confluent, by adding 2 ml of a minimum essential medium DMEM (Gibco) containing 10% fetal bovine serum (Sigma) to each well of the culture plate. The medium was substituted by 1 ml per well of a serum-free medium OPTI MEM I (Invitrogen), and 3.0 μg/well of each of the empty vector (pcDNA3.1), pcDNA-LKB1 and pcDNA-ATP5B was transiently transferred using Lipofect amine 2000 (Invitrogen). After 12 hours of the culturing, this was substituted by 2 ml/well of DMEM containing 10% of fetal bovine serum from which low molecular substances had been removed by a charcoal treatment, and further cultured for 36 hours. This was further cultured for 1 hour (1 hr) under a condition of adding phenformin (Sigma) to a final concentration of 1 mM or the solvent (DMSO) alone. The medium was discarded, the cells were washed with a phosphate buffer (to be referred to as PBS hereinafter, and then the cells were lysed by adding 0.15 ml of the aforementioned buffer A (however, the NaCl concentration was 150 mM, and various phosphatase inhibitors; 2 mM Na3VO4, 10 mM NaF, 25 mM β-glycerophosphate, 0.2 mM Na2MoO4, 20 nM okadaic acid, were added). The activity of AMPK in the cells was detected at the level of phosphorylation of molecules by a conventionally known SDS electrophoresis and a western blotting which uses an anti-phosphorylation AMPK antibody (Phospho-AMPK-α(Thr172) Antibody, Daiichi Pure Chemicals). In this case, in order to confirm that there is no difference in the amount of protein of AMPKα (an AMPK subunit which undergoes phosphorylation) among samples, a western blotting which uses an anti-AMPKα antibody (Daiichi Pure Chemicals) was simultaneously carried out. […] However, in the cell in which human ATP5B was expressed by transferring pcDNA-ATP5B, activation of AMPK by phenformin treatment was not found.

[4] = target: T1, human ATP5B (Homo sapiens, UniProt P06576); test: GST-DHFR / MTX-phenformin GST pull-down of 35S-labeled ATP5B; type: binding
T1 construct: an attempt was made to amplify complete length cDNA of human ATP5B; made in house; host or cells: cell-free: TNT Quick Coupled Transcription/Translation System (Promega) from pcDNA-ATP5B; GST-DHFR from E. coli BL21
Description: Promega) and 0.74 MBq of a radioisotope (redivue Pro-mix L-[35S]; Amersham) and in accordance with the protocols attached thereto. A 15 μl portion of this human ATP5B protein preparation liquid and 1 μg for each of the GST protein or GST-DHFR, purified on the glutathione Sepharose beads, were mixed and shaken at 4° C. for 1 hour after adding 0.3 ml of buffer A thereto. Thereafter, the protein binding to the GST protein or GST-DHFR on beads was co-precipitated by centrifugation. After repeating this operation 4 times, proteins in the precipitate were separated by SDS polyacrylamide gel electrophoresis in accordance with a conventionally known method, and the protein bound to the probe was detected by an autoradiography.

[5] = target: T1, human ATP5B; test: competitive inhibition of binding of ATP5B and MTX-phenformin; details: MTX-phenformin 10 μM; free phenformin 10 μM; compounds A and B 'addition of 10'

Compound	action to accelerate expression of TNF-α ([1]; TARDBP high expression cell, compared with control cell)	increase of expression of TNF-α ([1]; control cell (empty vector HeLa S3), 16 hours)	blood lactic acid level [2]	hypoglycemic action (blood sugar level) [2]	activation of AMPK in cell over-expressing human ATP5B [3]	binding with human ATP5B (band of about 60 kDa, autoradiography) ([4]; 10 μM MTX-phenformin fixed to GST-DHFR, wild type ATP5B)	binding to the ATP5B protein with increasing concentration ([4]; MTX-phenformin 1.0, 10, 100 μM)	phosphorylation level (activation) of AMPK [3]	influence on binding of ATP5B and MTX-phenformin [5]
C=C1[C@@H](O)[C@@H]2O[C@]3(CC[C@H](/C=C/[C@@H](C)[C@@H]4CC(C)=C[C@@]5(O[C@H](C[C@@](C)(O)C(=O)O)CC[C@H]5O)O4)O3)CC[C@H]2O[C@@H]1[C@@H](O)C[C@H](C)[C@H]1O[C@@]2(CCCCO2)CC[C@H]1C [okadaic acid]	almost the same	up to 80 times							
CN(C)C(=N)N=C(N)N [metformin]			significant increase	significant hypoglycemic action	not found				
CN(Cc1cnc2nc(N)nc(N)c2n1)c1ccc(C(=O)N[C@@H](CCC(=O)NCCCNC(=N)NC(=N)N)C(=O)O)cc1.Cl.Cl [MTX-phenformin, (2S)-5-[(3-{[{[amino(imino)methyl]amino}(imino)methyl]amino}propyl)amino]-2-({4-[[(2,4-diaminopteridin-6-yl)methyl](methyl)amino]benzoyl}amino)-5-oxopentanonic acid dihydrochloride]						detected in the form of binding to the GST-DHFR, only under the condition of adding the MTX-phenformin	clearly detected		
Nc1nc(Cl)c2nc[nH]c2n1 [compound B, 6-chloro-9H-purine-2-amine]				hypoglycemic action after 90 minutes and 180 minutes having a significant difference; also recorded: show hypoglycemic action	disappeared			significant AMPK activation ability	obstruct binding of ATP5B and MTX-phenformin
Oc1ccccc1/C=N/c1nc[nH]n1 [compound A, 2-[(E)-(1H-1,2,4-triazol-3-ylimino)methyl]phenol]			did not induce increase; also recorded: without causing in vivo accumulation of lactic acid	hypoglycemic action after 90 minutes and 180 minutes having a significant difference; also recorded: show hypoglycemic action	disappeared			significant AMPK activation ability	obstruct binding of ATP5B and MTX-phenformin
